Measured values taken from ChEMBL document CHEMBL1140429, “Conversion of the potent delta-opioid agonist H-Dmt-Tic-NH-CH(2)-bid into delta-opioid antagonists by N(1)-benzimidazole alkylation(1)” (J Med Chem, 2005).

Key:
[1] = molecular target: Delta-type opioid receptor (Rattus norvegicus, UniProt P33533); experiment: Displacement of [3H]deltorphin II from rat delta opioid receptor in brain P2 synaptosomes; format: subcellular
[2] = molecular target: Delta-type opioid receptor (Mus musculus, UniProt P32300); experiment: Functional bioactivity against delta opioid receptor in mouse vas deferens; format: tissue-based; details: for Kb: read-out: pA2 (converted)
Sequence of Delta-type opioid receptor (Mus musculus, UniProt P32300) (P32300 whole entry): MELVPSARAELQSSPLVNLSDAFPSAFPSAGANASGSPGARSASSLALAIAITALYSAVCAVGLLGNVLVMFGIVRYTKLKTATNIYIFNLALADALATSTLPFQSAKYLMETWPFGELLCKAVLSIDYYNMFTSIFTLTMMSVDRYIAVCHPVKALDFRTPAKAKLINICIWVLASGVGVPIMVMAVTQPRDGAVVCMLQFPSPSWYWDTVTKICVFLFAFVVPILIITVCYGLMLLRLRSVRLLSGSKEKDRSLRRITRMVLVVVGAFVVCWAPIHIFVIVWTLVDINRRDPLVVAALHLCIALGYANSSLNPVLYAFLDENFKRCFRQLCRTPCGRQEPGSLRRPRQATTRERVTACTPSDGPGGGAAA

Mu-type opioid receptor [3] = molecular target: Mu-type opioid receptor (Cavia porcellus, UniProt P97266); experiment: Functional bioactivity against mu opioid receptor in guinea-pig ileum; format: tissue-based
Sequence of Mu-type opioid receptor (Cavia porcellus, UniProt P97266) (P97266 whole entry): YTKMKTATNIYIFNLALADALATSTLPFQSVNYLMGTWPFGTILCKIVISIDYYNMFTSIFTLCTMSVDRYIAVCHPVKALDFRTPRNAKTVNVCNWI

Mu-type opioid receptor [4] = molecular target: Mu-type opioid receptor (Rattus norvegicus, UniProt P33535); experiment: Displacement of [3H]DAMGO from rat mu opioid receptor in brain P2 synaptosomes; format: subcellular
Sequence of Mu-type opioid receptor (Rattus norvegicus, UniProt P33535) (P33535 whole entry): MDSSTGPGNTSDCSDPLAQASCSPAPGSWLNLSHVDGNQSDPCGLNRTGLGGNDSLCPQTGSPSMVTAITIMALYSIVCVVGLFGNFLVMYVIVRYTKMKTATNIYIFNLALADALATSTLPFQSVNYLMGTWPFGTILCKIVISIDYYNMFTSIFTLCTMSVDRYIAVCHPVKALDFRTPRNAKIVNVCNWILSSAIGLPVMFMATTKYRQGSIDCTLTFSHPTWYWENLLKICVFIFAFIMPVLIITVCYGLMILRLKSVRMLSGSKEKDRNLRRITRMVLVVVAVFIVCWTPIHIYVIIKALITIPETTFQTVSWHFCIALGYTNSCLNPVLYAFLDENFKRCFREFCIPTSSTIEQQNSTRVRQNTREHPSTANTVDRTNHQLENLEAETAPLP

Sequence of Delta-type opioid receptor (Rattus norvegicus, UniProt P33533) (P33533 whole entry): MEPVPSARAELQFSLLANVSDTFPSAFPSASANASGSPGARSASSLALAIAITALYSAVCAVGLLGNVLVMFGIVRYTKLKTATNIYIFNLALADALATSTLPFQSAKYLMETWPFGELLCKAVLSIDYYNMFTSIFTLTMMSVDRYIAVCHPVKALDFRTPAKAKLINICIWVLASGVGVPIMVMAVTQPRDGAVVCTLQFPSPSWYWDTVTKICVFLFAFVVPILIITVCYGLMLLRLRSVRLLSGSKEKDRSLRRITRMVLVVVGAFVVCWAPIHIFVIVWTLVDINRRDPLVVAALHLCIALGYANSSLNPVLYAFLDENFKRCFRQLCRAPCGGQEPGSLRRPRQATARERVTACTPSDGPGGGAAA

What does the source list for Cc1cc(O)cc(C)c1C[C@H](N)C(=O)N1Cc2ccccc2C[C@H]1C(=O)NCc1nc2ccccc2n1CC1CC1?
Ki [1]: 0.36 nM; IC50 [2]: Not Active; Kb [2]: 0.339 nM; IC50 (Mu-type opioid receptor [3]): 64 nM; Ki (Mu-type opioid receptor [4]): 0.52 nM

With CCOC(=O)Cn1c(CNC(=O)[C@@H]2Cc3ccccc3CN2C(=O)[C@@H](N)Cc2c(C)cc(O)cc2C)nc2ccccc21 as the molecule, how does the Ki [1] read?
The Ki was 0.12 nM.

And the IC50 [2]?
The IC50 was “Not Active”.

And the Kb [2]?
The Kb was 0.17 nM.

What about the IC50 (Mu-type opioid receptor [3]) of the same molecule?
The IC50 was 30 nM.

And the Ki (Mu-type opioid receptor [4])?
Its Ki is 1.42 nM.

Which Ki [1] does the source give for C=CCn1c(CNC(=O)[C@@H]2Cc3ccccc3CN2C(=O)[C@@H](N)Cc2c(C)cc(O)cc2C)nc2ccccc21 here?
The Ki was 0.13 nM.

What about the IC50 [2] of the same molecule?
The IC50 was “Not Active”.

What about the Kb [2] of the same molecule?
The Kb was 0.457 nM.

And the IC50 (Mu-type opioid receptor [3])?
Its IC50 is 72 nM.

And the Ki (Mu-type opioid receptor [4])?
The Ki was 0.44 nM.

How did the Ki [1] turn out when Cc1cc(O)cc(C)c1C[C@H](N)C(=O)N1Cc2ccccc2C[C@H]1C(=O)NCc1nc2ccccc2n1CC(=O)O was run?
The Ki was 0.021 nM.

What about the IC50 [2] of the same molecule?
Its IC50 is “Not Active”.

And the Kb [2]?
Its Kb is 0.269 nM.

And the IC50 (Mu-type opioid receptor [3])?
Its IC50 is 3190 nM.

And the Ki (Mu-type opioid receptor [4])?
Its Ki is 6.92 nM.

How did the Ki [1] turn out when Cc1cc(O)cc(C)c1C[C@H](N)C(=O)N1Cc2ccccc2C[C@H]1C(=O)NCc1nc2ccccc2n1C was run?
Its Ki is 0.16 nM.

What about the IC50 [2] of the same molecule?
Its IC50 is “Not Active”.

And the Kb [2]?
Its Kb is 0.0724 nM.

What about the IC50 (Mu-type opioid receptor [3]) of the same molecule?
Its IC50 is 450 nM.

And the Ki (Mu-type opioid receptor [4])?
Its Ki is 0.83 nM.

For Cc1cc(O)cc(C)c1C[C@H](N)C(=O)N1Cc2ccccc2C[C@H]1C(=O)NCc1nc2ccccc2n1Cc1ccccc1, which Ki [1] is on record?
Its Ki is 0.2 nM.

What about the IC50 [2] of the same molecule?
The IC50 was “Not Active”.

And the Kb [2]?
Its Kb is 3.02 nM.

What about the IC50 (Mu-type opioid receptor [3]) of the same molecule?
The IC50 was 245 nM.

And the Ki (Mu-type opioid receptor [4])?
The Ki was 1.02 nM.

With CC(C)[C@H](NC(=O)[C@H](CC(=O)O)NC(=O)[C@H](Cc1ccccc1)NC(=O)[C@@H](C)NC(=O)[C@@H](N)Cc1ccc(O)cc1)C(=O)N[C@H](C(=O)NCC(N)=O)C(C)C [DELTORPHIN C] as the molecule, how does the IC50 (Mu-type opioid receptor [3]) read?
The IC50 was 1300 nM.

Which IC50 (Mu-type opioid receptor [3]) does the source give for C[C@@H](NC(=O)[C@@H](N)Cc1ccc(O)cc1)C(=O)N[C@@H](Cc1ccccc1)C(=O)NCC(=O)N[C@@H](Cc1ccc(O)cc1)C(=O)N1CCC[C@H]1C(=O)N[C@@H](CO)C(N)=O [DERMORPHIN] here?
Its IC50 is 1.9 nM.
